Test results published in US20060057093A1, “Preparation for topical use with the function of combating hair loss” (priority 2003, published 2006).

How the values were obtained:
[1] = test system: transglutaminases in keratinocytes; conditions: cited from earlier work
[2] = test system: human fibroblast cultures; experiment: cell-stimulating action on human fibroblast cultures; type: cell-based; conditions: active ingredient present in the culture medium
From the text: The cell-stimulating action of the complex of amino acids with silanol has been tested on human fibroblast cultures. The increase in cell growth was 46% when that active ingredient was present in the culture medium.

| Compound | formation of the corneified enclosure of the corneocytes ([1]; keratinocytes in the final stage of differentiation) | synthesis of transglutaminases in keratinocytes ([1]; keratinocytes) | increase in cell growth [2] |
| --- | --- | --- | --- |
| CCCC(=O)[O-].[Na+] [sodium butyrate] | capable of stimulating | capable of stimulating the synthesis of transglutaminases |  |
| monomethylsilanol-hydroxyproline aspartate [complex of amino acids with silanol] |  |  | 46% |
